Laboratory results from article PMC6100073, “Activation of Anthracene Endoperoxides in Leishmania and Impairment of Mitochondrial Functions” (Molecules : A Journal of Synthetic Chemistry and Natural …, 2018).
Like-named read-outs stand apart in the source and are kept apart here.

Key:
[1] = Xylenol orange assay: reaction of endoperoxides with Fe2+; details: 50 µM compound, 250 µM FeSO4, 125 µM xylenol orange, methanol/H2O (9:1 v/v)
Description: Xylenol orange (XO) (125 µM) and butylated hydroxytoluene (4 mM) were dissolved in methanol/H2O (9:1, v/v). FeSO4 (25 mM) in 2.5 M H2SO4 was prepared immediately before use and added, giving a final concentration of 250 µM FeSO4 in the samples. An aliquot of 100 µL EP solution (final concentration of 50 µM) was transferred into a disposable 1.5 mL cuvette (BRAND, Wertheim, Germany), and 1 mL of the color reagent was added. […] At these time points, the OD difference of the sample at 560 nm and 650 nm was determined using a MS1501 UV-vis diode array spectrophotometer (Shimadzu, Japan). As reference, a mixture of methanol/H2O (9:1, v/v) was used. […] The slope of the reaction rate was calculated using an extinction coefficient of the complex of 1.5 × 10^4 M^−1 cm^−1.

[2] = system: Leishmania donovani promastigotes (LdP); assay: MTS-PMS viability assay in Leishmania donovani promastigotes; format: cell-based; details: endpoint at 48 h, 5 × 10^5 LdP/mL, read-out: IC50 (µM) Mean ± SD LdP
Description: Leishmania donovani (PS14) were originated from the splenic aspirate of a patient with visceral leishmaniasis. Typing of the species was done by a restriction fragment length polymorphism (RFLP) method. The parasites were cultivated in M199 medium supplemented with 20% FBS, penicillin G (50,000 IU/L), streptomycin (50 mg/L), and hemin (5 µM) at 24 °C for transformation. After 1–2 weeks, the successfully transformed parasites (Leishmania donovani promastigotes, LdP) were transferred to M199 medium supplemented with 10% FBS, penicillin G (50,000 IU/L), streptomycin (50 mg/L), and hemin (5 µM) in 12.5 cm^2 flasks (HiMedia, Mumbai, India) at 24 °C. The cells were sub-cultured every 48–72 h, 1 × 10^6 cells/mL being the inoculum.
The antileishmanial activity of anthracene endoperoxides (AcEPs) in LdP was established in promastigotes, and cell viability was measured using the modified MTS-PMS assay. Briefly, log phase promastigotes (1 × 10^5 cells/200 µL of Schneider‘s medium/well) were incubated with AcEPs (0–100 µM) for 48 h, and afterwards, parasite viability was measured. For this, MTS (2.0 mg/mL) and PMS (0.92 mg/mL) were added in a ratio of 5:1 (20 µL/well), and plates were incubated for 3 h at 37 °C; resultant absorbance was measured at 490 nm in a spectrofluorimeter (Merilyzer EIaQuant, Meril Life Sciences, Gujarat, India). The mean percent viability was calculated as follows: mean specific absorbance of treated parasites/mean specific absorbance of untreated parasites × 100. Results were expressed as IC50 values. These were enumerated by graphical extrapolation using Graph pad Prism software (version 5).

Row | SMILES | Slope (nM·min^−1) Mean ± SD of XO/Fe^3+ complex formation [1] | IC50 ([2]; Leishmania donovani, 48 h) [µM] | IC50 [2] [µM]
1 | c1ccc2c(c1)C1OOC2c2ccccc21 [AcEP1117, 9,10-dihydro-9,10-epidioxidoanthracene] | 77 ± 18 nM/min | 2.65 ± 0.34 | –
2 | CC12OOC(C)(c3ccccc31)c1ccccc12 [AcEP1118, 9,10-dimethyl-9,10-dihydro-9,10-epidioxidoanthracene] | 2940 ± 11 nM/min | 4.1 ± 0.94 | –
3 | CC12OOC(c3ccccc31)c1ccccc12 [AcEP1129, 9-methyl-9,10-dihydro-9,10-epidioxidoanthracene] | 200,213 ± 60,600 nM·min^−1 | 4.21 ± 0.36 | –
4 | CCc1ccc2c(c1)C1OOC2c2ccccc21 (stereo not shown) [AcEP1130, 2-ethyl-9,10-dihydro-9,10-epidioxidoanthracene] | 146 ± 27 nM/min | 39.5 ± 3.48 | –
5 | N=C(N)c1ccc(OCCCCCOc2ccc(C(=N)N)cc2)cc1 [Pen, pentamidine, reference compound] | – | < 1 | 0.55 ± 0.11
